The values below come from patent US20240197709A1, “POTENTIATING THE TUMOR-SELECTIVE EFFECTS OF NQO1-BIOACTIVATABLE AGENT BY USE OF CMET INHIBITOR” (The Trustees of Indiana University, priority 2022, published 2024).

Series [1] relates to IMR90 lung fibroblast cell line. The series can be described thus: long-term cell survival assay, IMR90. The settings on record: IMR90, no NQO1, high CAT; criz ± sub-lethal β-lap (3 μM). It counts as cell-based, human. How it is done:
FIG. 1D. […] LC50 values were calculated from long-term cell survival graphs using GraphPad PRISM; ND denotes Not Determined even at the highest concentration presented. All error bars represent the mean±SEM. **** p<0.0001, *** p<0.001, ** p<0.01, *p<0.05.

The test system of series [2] is Capan2-mCherry microtumor. The series can be described thus: 3D spheroid co-culture, tumor cells. The format is cell-based. The following applies: 3D co-culture with NIH3T3-GFP; crizotinib 2 μM, β-lap 2 μM or 4 μM. How it is done: FIG. 5D. Top Inset: Representative brightfield, green (NIH3T3-GFP), red (Capan2-mCherry), and merged images of 3D spheroid co-culture of Capan2-mCherry (cancer cells) and NIH3T3-GFP (normal cells). 3D co-cultures were exposed to specified treatment conditions and imaged at indicated times to monitor drug response. Scale bar=250 μm. Untreated NIH3T3-GFP 3D spheroid culture by itself (imaged at indicated times) was added for reference.
FIG. 5E. Bar graph of Capan2-mCherry 3D spheroid microtumor growth at specified treatment conditions over time. Asterisk (*) indicates synergistic response in the combination treatment compared to the corresponding individual treatments alone.
Next, we investigated the tumor-selectivity and efficacy of our combination treatment strategy using 3D co-culture spheroids of Capan2 PDAC (permanently labelled with mCherry) and NIH3T3 mouse embryonic fibroblast cells (permanently labelled with GFP) to mimic physiological cell-cell and cell-environment interactions during treatment. […] These are consistent with patient data comparing associated normal tissues versus tumors in pancreas (FIGS. 1-1B, 1-1G) and lungs (FIGS. 1A, 1-1B, 1-1H). Using confocal fluorescent microscopy, we noted that NIH3T3-GFP fibroblast cells were surrounding the Capan2-mCherry PDAC cells in the 3D spheroid co-culture (FIG. 5D).

For series [3] the following is noted: in vivo; cited from earlier work.
The subject of a further series is Capan2 shMET. The series can be described thus: long-term survival (DNA assay), Capan2 shSCR versus shMET. It counts as cell-based. The following applies: DIC 50 μM. From the text: FIG. 1-1R. Graph showing relative long-term survival in isogenic Capan2 shSCR versus shMET cell lines using the DNA assay.
Dicoumarol (DIC) is a well-established NQO1 inhibitor (Asher, et al., Biochemistry 2006, 45(20), 6372-8; Motea, et al., Clin Cancer Res 2019, 25(8), 2601-2609; Huang, et al., Cancer Cell 2016, 30(6), 940-952).

Series [4] deals with cellular hydrogen peroxide (H2O2) levels in A549 cells. The series can be described thus: ROS-Glo H2O2 Assay. The format is cell-based. The settings on record: A549, DIC 50 μM. How it is done:
FIG. 2-1A. […] Growth media was then replaced with fresh media containing β-lap (3 μM) alone, criz alone (1 μM) or combination±DIC (50 μM) and collected at 15 and 120 min to measure H2O2 production using the ROS-Glo™ H2O2 Assay from Promega (Madison, WI). The assay was performed in three biological replicates.
Next, we sought to investigate the mechanistic role of cMET in promoting resistance to ROS-induced DNA lesions caused by the futile redox cycling of β-lap with NQO1. […] In response to H2O2 stimulation, cMET can translocate into the nucleus where it interacts with PARP1 for activation to enhance the repair of ROS-induced DNA damage. […] Next we performed PARP1 immunoprecipitation studies to determine whether it associates with activated cMET in the nucleus following treatment with β-lap at increasing doses.

The test system of series [5] is A549 NSCLC cell migration and invasion. The following applies: A549, crizotinib+β-lap+DIC.
Description: FIG. 4A. Representative images of A549 NSCLC cell migration at indicated treatment conditions at 16 h post-treatment using a Boyden chamber migration assay: 2 h pre-treatment with criz followed by additional 2 h with criz±β-lap.
FIG. 4B. Bar graph showing quantification of cell migration expressed as a percent of control (vehicle).
FIG. 4C. Representative images of A549 NSCLC cell invasion at indicated treatment conditions at 16 h post-treatment using a matrigel-coated Boyden chamber invasion assay: 2 h pre-treatment with criz followed by additional 2 h with criz±β-lap.
FIG. 4D. Bar graph showing quantification of cell invasion expressed as a percent of control (vehicle).

As for `C[C@@H](Oc1cc(-c2cnn(C3CCNCC3)c2)cnc1N)c1c(Cl)ccc(F)c1Cl` [crizotinib], the “long-term cell survival (sensitivity)” value in series [1] is given as “remained resistant”. In addition, the Capan2-mCherry microtumor growth entry in series [2] was “very little effect on tumor growth”. The MTD in series [3] is listed as 250 mg twice daily.
On to `O=c1oc2ccccc2c(O)c1Cc1c(O)c2ccccc2oc1=O` [DIC, Dicoumarol], for which, in the series on Capan2 shMET, the “effect of added DIC on β-lap sensitivity” value was “rescued”. For the same molecule, the “H2O2 formation, DIC added to β-lap+criz” value in series [4] is “prevented H2O2 formation”. For the same molecule, the “migration and invasion, DIC added to the combination treatment” value in series [5] was “restored the ability of A549 to migrate and invade”.
